Assay results as given in US10966426B2, “Herbicidal compositions comprising phenylpyrimidines” (BASF SE, priority 2016, dated 2021).

Legend:
Assay type in all cases: in vivo
Galium aparine [1] = experiment: greenhouse pre-emergence treatment, GALAP
Source text: (§1) The culture containers used were plastic pots containing loamy sand with approximately 3.0% of humus as substrate. The seeds of the test plants were sown separately for each species.
(§2) For the pre-emergence treatment, the active compounds, suspended or emulsified in water, were applied directly after sowing by means of finely distributing nozzles. The containers were irrigated gently to promote germination and growth and subsequently covered with transparent plastic hoods until the plants had rooted. This cover caused uniform germination of the test plants unless this was adversely affected by the active compounds.
(§3) Depending on the species, the plants were kept at 10-25° C. and 20-35° C., respectively.
(§4) The test period extended over 2 to 4 weeks. During this time, the plants were tended and their response to the individual treatments was evaluated.
(§5) Evaluation was carried out using a scale from 0 to 100. 100 means no emergence of the plants, or complete destruction of at least the above-ground parts, and 0 means no damage or normal course of growth. A good herbicidal activity is given at values of at least 70, and very good herbicidal activity is given at values of at least 85.
(§6) The respective stated components A and B, and if appropriate, C were formulated as a 10% by weight strength emulsion concentrate and, with addition of the amount of solvent system, introduced into the spray liquor used for applying the active compound. In the examples, the solvent used was water.
(§7) In the examples below, using the method of S. R. Colby (1967) “Calculating synergistic and antagonistic responses of herbicide combinations”, Weeds 15, p. 22ff., the value E, which is expected if the activity of the individual active compounds is only additive, was calculated. E=X+Y−(X·Y/100) where X=effect in percent using herbicide A at an application rate a; • Y=effect in percent using herbicide B at application rate b; • E=expected effect (in %) of herbicide A+herbicide B at application rates a+b.

Lolium multiflorum = experiment: greenhouse pre-emergence treatment, LOLMU; details: Lolium multiflorum, 480 h, 20 DAT
Source text: as §1, §2, §3, §4, §5, §6, §7

Digitaria sanguinalis = experiment: greenhouse pre-emergence treatment, DIGSA; details: Digitaria sanguinalis, 480 h, 20 DAT
Source text: as §1, §2, §3, §4, §5, §6, §7

Setaria viridis = experiment: greenhouse pre-emergence treatment, SETVI; details: for % activity: SETVI
Source text: as §1, §2, §3, §4, §5, §6, §7

Polygonum convolvulus = experiment: greenhouse pre-emergence treatment, POLCO; details: Fallopia convolvulus, 480 h, 20 DAT, saflufenacil solo 12.5 gai/ha
Source text: as §1, §2, §3, §4, §5, §6, §7

Ambrosia elatior = experiment: greenhouse pre-emergence treatment, AMBEL
Source text: as §1, §2, §3, §4, §5, §6, §7

Alopecurus myosuroides = experiment: greenhouse pre-emergence treatment, ALOMY
Source text: as §1, §2, §3, §4, §5, §6, §7

Avena fatua = experiment: greenhouse pre-emergence treatment, AVEFA; details: 20 DAT
Source text: as §1, §2, §3, §4, §5, §6, §7

Brachiaria decumbens = experiment: greenhouse pre-emergence treatment, BRADC; details: Urochloa decumbens, 480 h, 20 DAT
Source text: as §1, §2, §3, §4, §5, §6, §7

Galium aparine [2] = experiment: greenhouse post-emergence treatment, GALAP; details: Galium aparine, 480 h, Table X12, 20 DAT, GALAP, solo isoproturon (SC 500 g/l) 500 gai/ha
Method in brief: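 Seeds sown per species in pots of loamy sand; seedlings either grown in place or transplanted days before treatment. Post-emergence spray of water-based liquor at 3–15 cm height. Injury rated 0–100 over 2 to 4 weeks.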

Echinocloa crus-galli = experiment: greenhouse post-emergence treatment, ECHCG; details: Table X12, 20 DAT, ECHCG, solo isoproturon (SC 500 g/l) 125 gai/ha
Description: as §1
For the post-emergence treatment, the test plants were grown to a plant height of from 3 to 15 cm, depending on the plant habit, and only then treated with the active compounds which had been suspended or emulsified in water. To this end, the test plants were either sown directly, and grown in the same containers, or they were first grown separately as seedlings and transplanted into the test containers a few days prior to treatment.
as §3, §4, §5, §6, §7

Helianthus annuus = experiment: greenhouse pre-emergence treatment, HELAN; details: HELAN, 20 DAT
Source text: as §1, §2, §3, §4, §5, §6, §7

Papaver rhoeas = experiment: greenhouse pre-emergence treatment, PAPRH; details: 20 DAT
Source text: as §1, §2, §3, §4, §5, §6, §7

Bromus sterilis = experiment: greenhouse pre-emergence treatment, BROST; details: BROST, 20 DAT; for pest or weed control at 62.5 g/ha: Bromus sterilis, 480 h
Source text: as §1, §2, §3, §4, §5, §6, §7

Stellaria media = experiment: greenhouse pre-emergence treatment, STEME; details: 20 DAT
Source text: as §1, §2, §3, §4, §5, §6, §7

Poa annua = experiment: greenhouse pre-emergence treatment, POAAN; details: 20 DAT
Source text: as §1, §2, §3, §4, §5, §6, §7

Apera spica-venti = experiment: greenhouse pre-emergence treatment, APESV; details: 20 DAT
Source text: as §1, §2, §3, §4, §5, §6, §7

[3] = solo saflufenacil (SC 342 g/l) 6.25 gai/ha, 20 DAT
[4] = solo saflufenacil (SC 342 g/l) 25 gai/ha, 20 DAT
[5] = Table X13, 20 DAT, solo isoproturon (SC 500 g/l) 125 gai/ha
[6] = solo dimethenamid (EC 720 g/l) 62.5 gai/ha
[7] = dimethenamid solo (EC 720 g/l), 62.5 gai/ha
[8] = solo quinmerac (WP 50%) 250 gai/ha
[9] = solo quinmerac (WP 50%) 62.5 gai/ha

CC(C)N(C)S(=O)(=O)NC(=O)c1cc(-n2c(=O)cc(C(F)(F)F)n(C)c2=O)c(F)cc1Cl [saflufenacil]
% herbicidal activity (weed control, 0-100 scale) at 12.5 g/ha (Galium aparine [1]; Galium aparine, 480 h, 20 DAT, saflufenacil solo 12.5 gai/ha): 80%
pest or weed control at 30 g/ha (Galium aparine [1]; Galium aparine, 480 h, Table X11, 20 DAT, GALAP, solo saflufenacil (title: flumioxazin, WG 51%) 30 gai/ha, read-out: % activity): 65%
inhibition at 6.25 g/ha (Lolium multiflorum; saflufenacil solo 6.25 gai/ha): 10%
inhibition at 6.25 g/ha (Digitaria sanguinalis; saflufenacil solo 6.25 gai/ha): 10%
inhibition at 25 g/ha (Digitaria sanguinalis; saflufenacil solo 25 gai/ha): 35%
% activity (Setaria viridis; [3]): 25%
% activity (Setaria viridis; [4]): 65%
inhibition at 6.25 g/ha (Setaria viridis; Setaria viridis, 480 h, 20 DAT, saflufenacil solo 6.25 gai/ha): 25%
inhibition at 12.5 g/ha (Setaria viridis; Setaria viridis, 480 h, 20 DAT, saflufenacil solo 12.5 gai/ha): 40%
inhibition at 25 g/ha (Setaria viridis; Setaria viridis, 480 h, 20 DAT, saflufenacil solo 25 gai/ha): 65%
inhibition at 50 g/ha (Setaria viridis; Setaria viridis, 480 h, 20 DAT, saflufenacil solo 50 gai/ha): 90%
inhibition at 12.5 g/ha (Polygonum convolvulus): 90%
percent weed control (herbicidal activity, 0-100 scale) at 6.25 g/ha (Ambrosia elatior; Ambrosia artemisiifolia, 480 h, 20 DAT, saflufenacil solo 6.25 gai/ha): 45%
pest or weed control at 3.75 g/ha (Ambrosia elatior; Ambrosia artemisiifolia, 480 h, Table X11, 20 DAT, AMBEL, solo saflufenacil (title: flumioxazin, WG 51%) 3.75 gai/ha): 0%
% activity (Alopecurus myosuroides; [3]): 0%
% activity (Alopecurus myosuroides; solo saflufenacil (SC 342 g/l) 12.5 gai/ha, 20 DAT): 0%
% activity (Alopecurus myosuroides; [4]): 0%
inhibition at 6.25 g/ha (Avena fatua; Avena fatua, 480 h, saflufenacil solo 6.25 gai/ha): 0%
% herbicidal activity (weed control, 0-100 scale) at 6.25 g/ha (Brachiaria decumbens; saflufenacil solo 6.25 gai/ha): 10%
% herbicidal activity (weed control, 0-100 scale) at 12.5 g/ha (Brachiaria decumbens; saflufenacil solo 12.5 gai/ha): 20%

CC(C)c1ccc(NC(=O)N(C)C)cc1 [isoproturon]
pest or weed control at 500000 µg/mL, 500 g/ha (Galium aparine [2]): 30%
% activity (Setaria viridis; [5]): 0%
% activity (Setaria viridis; Table X13, 20 DAT, solo isoproturon (SC 500 g/l) 500 gai/ha): 75%
% activity (Alopecurus myosuroides; [5]): 0%
% activity (Echinocloa crus-galli): 40%

COCC(C)N(C(=O)CCl)c1c(C)csc1C (stereo not drawn) [dimethenamid]
% activity (Helianthus annuus; solo dimethenamid (EC 720 g/l) 250 gai/ha): 35%
plant injury at 250 g/ha (Helianthus annuus; Helianthus annuus, 480 h, dimethenamid solo (EC 720 g/l), 250 gai/ha): 35%
% activity (Galium aparine [1]; GALAP, 20 DAT, solo dimethenamid (EC 720 g/l) 31.25 gai/ha): 50%
% activity (Galium aparine [1]; GALAP, 20 DAT, solo dimethenamid (EC 720 g/l) 62.5 gai/ha): 60%
% activity (Galium aparine [1]; GALAP, 20 DAT, solo dimethenamid (EC 720 g/l) 125 gai/ha): 50%
pest or weed control at 31.25 g/ha (Galium aparine [1]; Galium aparine, 480 h, dimethenamid solo (EC 720 g/l), 31.25 gai/ha, 20 DAT, GALAP): 50%
pest or weed control at 62.5 g/ha (Galium aparine [1]; Galium aparine, 480 h, dimethenamid solo (EC 720 g/l), 62.5 gai/ha, 20 DAT, GALAP): 60%
pest or weed control at 125 g/ha (Galium aparine [1]; Galium aparine, 480 h, dimethenamid solo (EC 720 g/l), 125 gai/ha, 20 DAT, GALAP): 50%
% activity (Papaver rhoeas; [6]): 90%
% activity (Papaver rhoeas; [7]): 90%
% activity (Papaver rhoeas; dimethenamid solo (EC 720 g/l), 125 gai/ha): 90%
% activity (Bromus sterilis; [6]): 80%
pest or weed control at 62.5 g/ha (Bromus sterilis; [7]): 80%
pest or weed control at 62.5 g/ha (Lolium multiflorum; dimethenamid solo (EC 720 g/l), 62.5 gai/ha, LOLMU): 80%
% activity (Stellaria media; dimethenamid solo (EC 720 g/l), 31.25 gai/ha): 80%
% activity (Stellaria media; [7]): 90%
% activity (Ambrosia elatior; AMBEL, 20 DAT, solo dimethenamid (EC 720 g/l) 125 gai/ha): 20%
% activity (Ambrosia elatior; AMBEL, 20 DAT, solo dimethenamid (EC 720 g/l) 250 gai/ha): 30%
pest or weed control at 31.25 g/ha (Ambrosia elatior; Ambrosia artemisiifolia, 480 h, AMBEL, 20 DAT, solo dimethenamid (EC 720 g/l) 31.25 gai/ha): 0%
pest or weed control at 62.5 g/ha (Ambrosia elatior; Ambrosia artemisiifolia, 480 h, AMBEL, 20 DAT, solo dimethenamid (EC 720 g/l) 62.5 gai/ha): 0%
pest or weed control at 125 g/ha (Ambrosia elatior; Ambrosia artemisiifolia, 480 h, dimethenamid solo (EC 720 g/l), 125 gai/ha, 20 DAT, AMBEL): 20%
pest or weed control at 250 g/ha (Ambrosia elatior; Ambrosia artemisiifolia, 480 h, dimethenamid solo (EC 720 g/l), 250 gai/ha, 20 DAT, AMBEL): 30%
% activity (Alopecurus myosuroides; dimethenamid solo (EC 720 g/l), 125 gai/ha, 20 DAT): 60%
% activity (Alopecurus myosuroides; dimethenamid solo (EC 720 g/l), 250 gai/ha, 20 DAT): 65%
% activity (Avena fatua; AVEFA, solo dimethenamid (EC 720 g/l) 62.5 gai/ha): 10%
pest or weed control at 62.5 g/ha (Avena fatua; Avena fatua, 480 h, dimethenamid solo (EC 720 g/l), 62.5 gai/ha, AVEFA): 10%
pest or weed control at 125 g/ha (Avena fatua; Avena fatua, 480 h, dimethenamid solo (EC 720 g/l), 125 gai/ha, AVEFA): 50%
pest or weed control at 250 g/ha (Avena fatua; Avena fatua, 480 h, dimethenamid solo (EC 720 g/l), 250 gai/ha, AVEFA): 65%
pest or weed control at 31.25 g/ha (Brachiaria decumbens; dimethenamid solo (EC 720 g/l), 31.25 gai/ha, BRADC): 60%

Cc1cnc2c(C(=O)O)c(Cl)ccc2c1 [quinmerac]
plant injury at 125 g/ha (Helianthus annuus; Helianthus annuus, 480 h, solo quinmerac (WP 50%) 125 gai/ha): 0%
plant injury at 62.5 g/ha (Helianthus annuus; Helianthus annuus, 480 h, quinmerac solo (WP 50%), 62.5 gai/ha): 0%
pest or weed control at 125 g/ha (Galium aparine [1]; Galium aparine, 480 h, GALAP, 20 DAT, solo quinmerac (WP 50%) 125 gai/ha): 95%
% activity (Papaver rhoeas; [8]): 95%
% activity (Poa annua; [9]): 0%
% activity (Poa annua; solo quinmerac (WP 50%) 125 gai/ha): 0%
% activity (Poa annua; [8]): 0%
pest or weed control at 62.5 g/ha (Bromus sterilis; [9]): 0%
pest or weed control at 250 g/ha (Lolium multiflorum; LOLMU, solo quinmerac (WP 50%) 250 gai/ha): 0%
pest or weed control at 31.25 g/ha (Digitaria sanguinalis; DIGSA, solo quinmerac (WP 50%) 31.25 gai/ha): 0%
pest or weed control at 62.5 g/ha (Digitaria sanguinalis; DIGSA, solo quinmerac (WP 50%) 62.5 gai/ha): 0%
pest or weed control at 125 g/ha (Digitaria sanguinalis; DIGSA, solo quinmerac (WP 50%) 125 gai/ha): 0%
% activity (Stellaria media; [8]): 0%
pest or weed control at 250 g/ha (Ambrosia elatior; Ambrosia artemisiifolia, 480 h, AMBEL, 20 DAT, solo quinmerac (WP 50%) 250 gai/ha): 0%
% activity (Apera spica-venti; [9]): 0%
% activity (Apera spica-venti; [8]): 25%
pest or weed control at 31.25 g/ha (Avena fatua; Avena fatua, 480 h, AVEFA, solo quinmerac (WP 50%) 31.25 gai/ha): 0%
pest or weed control at 125 g/ha (Avena fatua; Avena fatua, 480 h, AVEFA, solo quinmerac (WP 50%) 125 gai/ha): 0%
pest or weed control at 62.5 g/ha (Brachiaria decumbens; quinmerac solo (WP 50%), 62.5 gai/ha, BRADC): 0%
pest or weed control at 125 g/ha (Brachiaria decumbens; quinmerac solo (WP 50%), 125 gai/ha, BRADC): 0%
pest or weed control at 250 g/ha (Brachiaria decumbens; quinmerac solo (WP 50%), 250 gai/ha, BRADC): 30%
